Data set [1] has as its system Smn protein in SMA patient fibroblast cells (GM03813). In words: Smn protein assay in cultured cells (SMN HTRF). The format is cell-based, human. Particulars: SMA patient fibroblast cells, 48 hours; for EC1.5x for Smn protein expression: 7-point concentration curve, SMN HTRF, concentration producing 1.5 times Smn protein vs DMSO vehicle control; for maximum fold (Fold) increase of Smn protein: 7-point concentration data, fold relative to vehicle control. In outline: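 SMA patient fibroblasts (5,000/well, DMEM-10% FBS) treated 48 h at 37° C with 7-point, 3.16-fold compound series in triplicate; lysates read by SMN HTRF (665/620 nm ratio). Fold Smn increase over DMSO vehicle derived; EC1.5× is concentration giving 1.5-fold Smn, with maximum fold also reported.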
(Time-resolved FRET reads energy transfer from a long-lived donor to a nearby acceptor.)

Data set [2] deals with SMN2 minigene mRNA (SMN2-A minigene) in HEK293H cells. Nature of the data set: SMN2 minigene mRNA splicing RT-qPCR assay in cultured cells. The format is cell-based, human. Particulars: Homo sapiens, HEK293-H; concentration increasing full length SMN2 mRNA 1.5-fold relative to vehicle-treated cells; HEK293H cells with SMN2-A minigene, 24 hours, 7-point concentration data; read-out: EC1.5x for production of full length SMN2 mRNA. In outline: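 HEK293H cells stably carrying SMN2-A minigene treated with compounds (7-point, 3.16-fold dilutions, duplicates) for 24 h at 37 °C. Full-length exon 7-containing minigene mRNA measured by multiplex RT-qPCR with GAPDH, normalized and expressed relative to vehicle (modified ΔΔCt); EC1.5× is concentration giving 1.5-fold increase.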
In general terms: In qPCR the cycle at which signal appears reflects the starting amount.

From patent publication US11753407B2, “Compounds for treating spinal muscular atrophy” (PTC Therapeutics, Inc., priority 2012, dated 2023) come the findings set out here.

Bounds are passed on as bounds.

By melting point is commonly meant the temperature, or range, at which the solid turns liquid.

For `Cc1cn2cc(-c3cc(=O)n4cc(C5=CCNCC5)ncc4n3)cc2c(C)n1.Cl.Cl` [Compound 413, 2-(1,3-dimethylpyrrolo[1,2-a]pyrazin-7-yl)-7-(1,2,3,6-tetrahydropyridin-4-yl)-4H-pyrazino[1,2-a]pyrimidin-4-one hydrochloride (1:2)], the melting point was > 300 °C. In data set [1], the “EC1.5x for Smn protein expression” value is listed as “**** (an EC1.5x≤0.3 μM is indicated by four stars (****))”; the “maximum fold (Fold) increase of Smn protein” value (from here on “maximum fold (Fold) increase”) was “**** (a fold increase between >1.5 and ≤1.65 is indicated by four stars (****))”. For the same molecule, the EC (1.5-fold increase) in data set [2] was < 0.1 µM.
For the molecule `Cc1cn2nc(-c3cc(=O)n4cc(N5CCN(C)CC5)ccc4n3)cc2c(C2CC2)n1` [Compound 684, 2-(4-cyclopropyl-6-methylpyrazolo[1,5-a]pyrazin-2-yl)-7-(4-methylpiperazin-1-yl)-4H-pyrido[1,2-a]pyrimidin-4-one], the melting point fell in the range of 238 to 240 °C. Also, in data set [1], the “EC1.5x for Smn protein expression” value was “*** (an EC1.5× between >0.3 μM and ≤1 μM is indicated by three stars (***))”; the “maximum fold (Fold) increase” value is “***** (a fold increase >1.65 is indicated by five stars (*****))”. In addition, the EC (1.5-fold increase) in data set [2] is 0.1 to 0.3 µM.
The molecule `Cc1nc2ccc(-c3cc(=O)n4cc(N5CCNC(C)(C)C5)ccc4n3)cc2o1` [Compound 194, 7-(3,3-dimethylpiperazin-1-yl)-2-(2-methyl-1,3-benzoxazol-6-yl)-4H-pyrido[1,2-a]pyrimidin-4-one] returned a melting point of 160 to 162 °C. For the same molecule, in data set [1], the “EC1.5x for Smn protein expression” value is given as “**** (an EC1.5x≤0.3 μM is indicated by four stars (****))” and the “maximum fold (Fold) increase” value is recorded as “***** (a fold increase >1.65 is indicated by five stars (*****))”. For the same molecule, the EC (1.5-fold increase) in data set [2] is < 0.1 µM.
`COc1ccc(-c2cc(=O)n3cc(C4=CCN(C5CCC5)CC4)ccc3n2)cc1OC` [Compound 362, 7-(1-cyclobutyl-1,2,3,6-tetrahydropyridin-4-yl)-2-(3,4-dimethoxyphenyl)-4H-pyrido[1,2-a]pyrimidin-4-one]: the melting point lay within 152 to 154 °C. For the same molecule, the “maximum fold (Fold) increase” value in data set [1] is “*** (a fold increase between >1.35 and ≤1.5 is indicated by three stars (***))”. For the same molecule, the EC (1.5-fold increase) in data set [2] lay in the range of 0.3 to 1 µM.
`Cc1cn2cc(-c3cc(=O)n4cc(C5CCN(C6CCC6)CC5)ncc4n3)ccc2n1` [Compound 628, 7-(1-cyclobutylpiperidin-4-yl)-2-(2-methylimidazo[1,2-a]pyridin-6-yl)-4H-pyrazino[1,2-a]pyrimidin-4-one] yielded a melting point of 249 to 251 °C. Also, in data set [1], the “EC1.5x for Smn protein expression” value is “* (An EC1.5× for Smn protein expression between >3 μM and ≤10 μM is indicated by one star (*))”; the “maximum fold (Fold) increase” value is “**** (a fold increase between >1.5 and ≤1.65 is indicated by four stars (****))”. For the same molecule, the EC (1.5-fold increase) in data set [2] was 0.3 to 1 µM.
Regarding `Cc1ccc(-c2cc(=O)n3cc(N4CCN[C@@H](C)C4)ccc3n2)cc1C` [Compound 56, 2-(3,4-dimethylphenyl)-7-[(3S)-3-methylpiperazin-1-yl]-4H-pyrido[1,2-a]pyrimidin-4-one], the melting point is 207 to 209 °C. Besides, the “maximum fold (Fold) increase” value in data set [1] is “* (A maximum fold increase of ≤1.2 is indicated by one star (*))”. In addition, the EC (1.5-fold increase) in data set [2] was 1 to 3 µM.
The molecule `O=c1cc(-c2cccc(C(F)(F)F)c2)nc2ccc(N3CCNCC3)cn12` [Compound 43, 7-(piperazin-1-yl)-2-[3-(trifluoromethyl)phenyl]-4H-pyrido[1,2-a]pyrimidin-4-one] showed a melting point of 199 to 207 °C. For the same molecule, in data set [1], the “EC1.5x for Smn protein expression” value is “** (an EC1.5× between >1 μM and ≤3 μM is indicated by two stars (**))”; the “maximum fold (Fold) increase” value is “*** (a fold increase between >1.35 and ≤1.5 is indicated by three stars (***))”. For the same molecule, the EC (1.5-fold increase) in data set [2] was in the range of 0.1 to 0.3 µM.
For `Cc1ccc2nc(-c3cc(=O)n4cc(N5CCNCC5)ccc4n3)cn2c1` [Cpd 29, 2-(6-methylimidazo[1,2-a]pyridin-2-yl)-7-(piperazin-1-yl)-4H-pyrido[1,2-a]pyrimidin-4-one], the melting point was 193 to 198 °C. Also, in data set [1], the “maximum fold (Fold) increase” value is “*** (a fold increase between >1.35 and ≤1.5 is indicated by three stars (***))”. Also, in data set [2], the EC (1.5-fold increase) was in the range of 3 to 30 µM.
With `Cc1cn2nc(-c3cc(=O)n4cc(N5CCC(C)(N(C)C)CC5)ccc4n3)cc2c(C)n1` [Compound 706, 7-[4-(dimethylamino)-4-methylpiperidin-1-yl]-2-(4,6-dimethylpyrazolo[1,5-a]pyrazin-2-yl)-4H-pyrido[1,2-a]pyrimidin-4-one], the melting point lay within 237 to 239 °C. In data set [1], the “EC1.5x for Smn protein expression” value is listed as “**** (an EC1.5x≤0.3 μM is indicated by four stars (****))” and the “maximum fold (Fold) increase” value is listed as “***** (a fold increase >1.65 is indicated by five stars (*****))”. In data set [2], the EC (1.5-fold increase) was < 0.1 µM.
In the case of `Cc1cn2cc(-c3cc(=O)n4cc(N5CCNCC5)ccc4n3)cc(F)c2n1` [Cpd 209, 2-(8-fluoro-2-methylimidazo[1,2-a]pyridin-6-yl)-7-(piperazin-1-yl)-4H-pyrido[1,2-a]pyrimidin-4-one], the melting point fell in the range of 282 to 288 °C. In addition, in data set [1], the “EC1.5x for Smn protein expression” value is given as “**** (an EC1.5x≤0.3 μM is indicated by four stars (****))”; the “maximum fold (Fold) increase” value is “**** (a fold increase between >1.5 and ≤1.65 is indicated by four stars (****))”. Moreover, the EC (1.5-fold increase) in data set [2] is < 0.1 µM.
`CCc1cc(C2=CCNCC2)cn2c(=O)cc(-c3ccc(OC)c(OC)c3)nc12` [Compound 408, 2-(3,4-dimethoxyphenyl)-9-ethyl-7-(1,2,3,6-tetrahydropyridin-4-yl)-4H-pyrido[1,2-a]pyrimidin-4-one] returned a melting point of 171 to 177 °C. Besides, the “maximum fold (Fold) increase” value in data set [1] was “** (a fold increase between >1.2 and ≤1.35 is indicated by two stars (**))”. Besides, the EC (1.5-fold increase) in data set [2] is < 0.1 µM.
`COc1ccc(-c2cc(=O)n3cc(N4CCC(NC5CC5)CC4)cc(C)c3n2)cc1OC` [Compound 330, 7-[4-(cyclopropylamino)piperidin-1-yl]-2-(3,4-dimethoxyphenyl)-9-methyl-4H-pyrido[1,2-a]pyrimidin-4-one] showed a melting point of 141 °C. The “maximum fold (Fold) increase” value in data set [1] is “** (a fold increase between >1.2 and ≤1.35 is indicated by two stars (**))”. In addition, the EC (1.5-fold increase) in data set [2] was 0.1 to 0.3 µM.
Molecule `Cc1cn2nc(-c3cc(=O)n4cc(N5C[C@@H](C)N(C)[C@@H](C)C5)cc(C)c4n3)cc2c(C)n1` [Compound 564, 2-(4,6-dimethylpyrazolo[1,5-a]pyrazin-2-yl)-9-methyl-7-[(3R,5S)-3,4,5-trimethylpiperazin-1-yl]-4H-pyrido[1,2-a]pyrimidin-4-one] registered a melting point of 297 to 310 °C. Moreover, the “maximum fold (Fold) increase” value in data set [1] is “* (A maximum fold increase of ≤1.2 is indicated by one star (*))”. Moreover, the EC (1.5-fold increase) in data set [2] is 1 to 3 µM.
In the case of `CCN(C)C1CC=C(c2ccc3nc(-c4ccc(OC)c(OC)c4)cc(=O)n3c2)CC1` (centres unmarked) [Compound 368, 2-(3,4-dimethoxyphenyl)-7-{4-[ethyl(methyl)amino]cyclohex-1-en-1-yl}-4H-pyrido[1,2-a]pyrimidin-4-one], the melting point was in the range of 132 to 134 °C. In addition, in data set [1], the “EC1.5x for Smn protein expression” value was “*** (an EC1.5× between >0.3 μM and ≤1 μM is indicated by three stars (***))”; the “maximum fold (Fold) increase” value is “**** (a fold increase between >1.5 and ≤1.65 is indicated by four stars (****))”. Besides, the EC (1.5-fold increase) in data set [2] is < 0.1 µM.
For `CCc1nc(C)cn2nc(-c3cc(=O)n4cc(N5CCN(CCF)CC5)ccc4n3)cc12` [Compound 664, 2-(4-ethyl-6-methylpyrazolo[1,5-a]pyrazin-2-yl)-7-[4-(2-fluoroethyl)piperazin-1-yl]-4H-pyrido[1,2-a]pyrimidin-4-one], the melting point lay within 245 to 247 °C. Besides, in data set [1], the “EC1.5x for Smn protein expression” value is “*** (an EC1.5× between >0.3 μM and ≤1 μM is indicated by three stars (***))”; the “maximum fold (Fold) increase” value is recorded as “***** (a fold increase >1.65 is indicated by five stars (*****))”. Besides, in data set [2], the EC (1.5-fold increase) lay within 0.3 to 1 µM.
In the case of `CCc1nc(C)cn2nc(-c3cc(=O)n4cc(N5CCN(C)[C@H](C)C5)ccc4n3)cc12` [Cpd 629, 7-[(3R)-3,4-dimethylpiperazin-1-yl]-2-(4-ethyl-6-methylpyrazolo[1,5-a]pyrazin-2-yl)-4H-pyrido[1,2-a]pyrimidin-4-one], the melting point is 257 to 259 °C. Besides, in data set [1], the “EC1.5x for Smn protein expression” value was “**** (an EC1.5x≤0.3 μM is indicated by four stars (****))” and the “maximum fold (Fold) increase” value is listed as “***** (a fold increase >1.65 is indicated by five stars (*****))”. For the same molecule, the EC (1.5-fold increase) in data set [2] was < 0.1 µM.
The molecule `Cc1csc(-c2cc(=O)n3cc(N4CCN[C@@H](C)C4)ccc3n2)n1` [Compound 162, 7-[(3S)-3-methylpiperazin-1-yl]-2-(4-methyl-1,3-thiazol-2-yl)-4H-pyrido[1,2-a]pyrimidin-4-one] displayed a melting point of 225 to 230 °C. For the same molecule, in data set [1], the “EC1.5x for Smn protein expression” value was “** (an EC1.5× between >1 μM and ≤3 μM is indicated by two stars (**))”; the “maximum fold (Fold) increase” value is “**** (a fold increase between >1.5 and ≤1.65 is indicated by four stars (****))”. Moreover, the EC (1.5-fold increase) in data set [2] is 0.3 to 1 µM.
